Reference: patent US9018414B2, “Substituted 3-phenylpropionic acids and the use thereof” (Bayer Intellectual Property GmbH, priority 2009, dated 2015)

Each molecule was assayed on recombinant guanylate cyclase reporter cell line (assay: Action at recombinant guanylate cyclase reporter cell line (CHO reporter cell)). Details: MEC = minimal effective concentration; read-out: sGC-activating activity in the CHO reporter cell in vitro, MEC.
Assay type: cell-based
Procedure: The cellular action of the compounds according to the invention is determined at a recombinant guanylate cyclase reporter cell line, as described in F. Wunder et al., Anal. Biochem. 339, 104-112 (2005).
C[C@H]([C@H](C(=O)Nc1cc(CCC(=O)O)ccc1Cl)c1ccc(CC(F)(F)F)cc1)C(F)(F)F (racemic) [Example 5, 3-[4-Chloro-3-({4,4,4-trifluoro-3-methyl-2-[4-(2,2,2-trifluoroethyl)phenyl]butanoyl}amino)phenyl]-propanoic acid] gave a minimal effective concentration of 0.003 µM. C[C@H]([C@H](C(=O)Nc1cc(C2CC2C(=O)O)ccc1F)c1ccc(Cl)cc1)C(F)(F)F (single isomer, unassigned) [Example 53] was tested, and the minimal effective concentration was 0.3 µM. CCC[C@@H](CC(=O)O)c1ccc(Cl)c(NC(=O)[C@H](c2ccc(Cl)cc2)[C@@H](C)C(F)(F)F)c1 (single isomer, unassigned) [Example 82] was tested, and the minimal effective concentration was 0.00023 µM. C[C@H]([C@H](C(=O)Nc1cc([C@H](CC(=O)O)C(F)(F)F)ccc1Cl)c1ccc(Cl)cc1)C(F)(F)F (single isomer, unassigned) [Example 84] was tested, and the minimal effective concentration was 0.001 µM. Molecule CC[C@@H](CC(=O)O)c1ccc(Cl)c(NC(=O)[C@H](c2ccc(Cl)cc2)[C@@H](C)C(F)(F)F)c1 (single isomer, unassigned) [Example 87] has a minimal effective concentration of 0.001 µM. C[C@@H](Cc1ccc(Cl)c(NC(=O)C(c2ccc(Cl)cc2)C2CCC(F)(F)C2)c1)C(=O)O (single isomer, unassigned) [Example 105] showed a minimal effective concentration of 0.03 µM. Molecule CCC(C)(Cc1ccc(Cl)c(NC(=O)[C@H](c2ccc(Cl)cc2)[C@@H](C)C(F)(F)F)c1)C(=O)O (single isomer, unassigned; (+)) [Example 71] has a minimal effective concentration of 0.01 µM. Work on C[C@H]([C@H](C(=O)Nc1cc(CCC(=O)O)ccc1Cl)c1ccc(C(C)(C)C)cc1)C(F)(F)F [Example 2, (+)-3-(3-{[(2S,3R)-2-(4-tert-butylphenyl)-4,4,4-trifluoro-3-methylbutanoyl]amino}-4-chlorophenyl)-propanoic acid] yielded a minimal effective concentration of 0.0003 µM. For CCc1ccc([C@@H](C(=O)Nc2cc(C(C)CC(=O)O)ccc2Cl)[C@@H](C)C(F)(F)F)cc1 (stereo partly drawn) [Example 7, 3-(4-chloro-3-{[(2S,3R)-2-(4-ethylphenyl)-4,4,4-tri-fluoro-3-methylbutanoyl]amino}phenyl)butanoic acid], the minimal effective concentration was 0.0002 µM. For C[C@@H](CC(=O)O)c1ccc(Cl)c(NC(=O)C(c2ccc(Cl)cc2)C2CCCC2(F)F)c1 (stereo partly drawn) [Example 10, (3S)-3-(4-chloro-3-{[(4-chlorophenyl)(2,2-difluoro-cyclopentyl)acetyl]amino}phenyl)butanoic acid], the minimal effective concentration was 0.0052 µM. With C[C@H]([C@H](C(=O)Nc1cc(C2(CC(=O)O)CC2)ccc1F)c1ccc(Cl)cc1)C(F)(F)F [Example 18, (+)-[1-(3-{[(2S,3R)-2-(4-Chlorophenyl)-4,4,4-trifluoro-3-methylbutanoyl]amino}-4-fluorophenyl)-cyclopropyl]acetic acid] the minimal effective concentration was 0.01 µM. For C[C@H](C(C(=O)Nc1cc(C2(CC(=O)O)CCC2)ccc1Cl)c1ccc(Cl)cc1)C(F)(F)F (stereo partly drawn) [Example 28, [1-(4-Chloro-3-{[(3R)-2-(4-chlorophenyl)-4,4,4-trifluoro-3-methylbutanoyl]amino}-phenyl)cyclobutyl]acetic acid], the minimal effective concentration was 0.001 µM. With CC[C@@H](Cc1ccc(Cl)c(NC(=O)[C@H](c2ccc(Cl)cc2)[C@@H](C)C(F)(F)F)c1)C(=O)O [Example 30, (+)-(2S)-2-(4-Chloro-3-{[(2S,3R)-2-(4-chlorophenyl)-4,4,4-trifluoro-3-methylbutanoyl]amino}-benzyl)butanoic acid] the minimal effective concentration was 0.0003 µM. For CC(Cc1ccc(F)c(NC(=O)C(c2ccc(Cl)cc2)[C@@H](C)C(F)(F)F)c1)C(=O)O (stereo partly drawn) [Example 37, 3-(3-{[(3R)-2-(4-Chlorophenyl)-4,4,4-trifluoro-3-methylbutanoyl]amino}-4-fluorophenyl)-2-methylpropanoic acid], the minimal effective concentration was 0.01 µM. CC(C(=O)O)C(C)c1ccc(F)c(NC(=O)[C@H](c2ccc(Cl)cc2)[C@@H](C)C(F)(F)F)c1 (stereo partly drawn) [Example 50, threo-3-(3-{[(2S,3R)-2-(4-chlorophenyl)-4,4,4-tri-fluoro-3-methylbutanoyl]amino}-4-fluorophenyl)-2-methylbutanoic acid] was tested, and the minimal effective concentration was 0.03 µM. CCCC(CC(=O)O)c1ccc(Cl)c(NC(=O)[C@H](c2ccc(Cl)cc2)[C@@H](C)C(F)(F)F)c1 (stereo partly drawn) [Example 81, 3-(4-Chloro-3-{[(2S,3R)-2-(4-chlorophenyl)-4,4,4-trifluoro-3-methylbutanoyl]amino}phenyl)-hexanoic acid] was tested, and the minimal effective concentration was 0.0003 µM. C[C@H]([C@H](C(=O)Nc1cc(CC(C)(C)C(=O)O)ccc1Cl)c1ccc(Cl)cc1)C(F)(F)F [Example 89] was tested, and the minimal effective concentration was 0.003 µM. C[C@H]([C@H](C(=O)Nc1cc(C2(CC(=O)O)CCC2)ccc1Cl)c1ccc(Cl)cc1)C(F)(F)F [Example 90] showed a minimal effective concentration of 0.001 µM. C[C@H]([C@H](C(=O)Nc1cc(C2(CC(=O)O)CC2)ccc1Cl)c1ccc(Cl)cc1)C(F)(F)F [Example 96] showed a minimal effective concentration of 0.001 µM. Molecule CC(C(C(=O)Nc1cc(C[C@H](C)C(=O)O)ccc1Cl)c1ccc(CC(F)(F)F)cc1)C(F)(F)F (stereo partly shown) [Example 99] has a minimal effective concentration of 0.01 µM. With C[C@H]([C@H](C(=O)Nc1cc(C[C@H](C)C(=O)O)ccc1Cl)c1ccc(C2CC(F)(F)C2)cc1)C(F)(F)F [Example 100] the minimal effective concentration was 0.003 µM. C[C@H]([C@H](C(=O)Nc1cc(C2(CC(=O)O)CC(F)(F)C2)ccc1Cl)c1ccc(Cl)cc1)C(F)(F)F [Example 102] was tested, and the minimal effective concentration was 0.001 µM.
